Usually MIC80 stands for the lowest concentration that inhibits either 80% of growth or 80% of the strains tested, depending on the study. One may read the IC50 as the midpoint of a concentration-inhibition curve. A word on the half-life: it is how long it takes for the measured level to halve. Read a high half-life as slow loss. What is called fraction remaining is the share of the starting amount still present when the sample was taken. The low end stands for a greater loss, the high end for greater stability. In general, microsomal CLint refers to a measure of how fast metabolising enzymes remove a compound, apart from limits set by blood flow. High values mean faster metabolism, low ones greater metabolic stability.

One series concerns Strain 632. Nature of the series: Antifungal activity against fluconazole-resistant strain. In kind it is cell-based. The note with it: Candida albicans, 632, read-out: MIC80 Strain 632.
Another series deals with MRC-5 cells. As to the kind of experiment: Cytotoxicity assay on normal cells. In kind it is cell-based, human. Particulars: read-out: IC50 on MRC-5 cell lines.
Another series concerns C. neo. As to the kind of experiment: In vitro antifungal assay. In kind it is cell-based. The note with it: Cryptococcus neoformans, read-out: MIC80 C. neo.
The test system of a further series is C. alb (SC5314). As to the kind of experiment: In vitro antifungal assay. It counts as cell-based. Particulars: Candida albicans, SC5314, read-out: MIC80 C. alb (SC5314).
Another series relates to Strain CaR. As to the kind of experiment: Antifungal activity against fluconazole-resistant strain. It counts as cell-based. Particulars: Candida albicans, read-out: MIC80 Strain CaR.
Another series has as its system Strain 17#. Described as above. In kind it is cell-based. Particulars: Candida albicans, read-out: MIC80 Strain 17#.
The test system of series [1] is ERG11 and CDR1 of azole-resistant strain 904. As to the kind of experiment: RT-PCR expression of resistant genes ERG11 and CDR1. It counts as cell-based, Candida albicans. Particulars: 0.25 μg mL^−1, strain 904, RT-PCR.
The next series concerns Strain 901. As to the kind of experiment: Antifungal activity against fluconazole-resistant strain. Particulars: Candida albicans, 901, read-out: MIC80 Strain 901. It counts as cell-based.
For a further series, the system named is Strain 904. The description is as above. It counts as cell-based, Candida albicans. The note with it: Candida albicans, 904, read-out: MIC80 Strain 904.
The test system of series [2] is C. alb (5314),C. par, C. gla, C. kru and C. neo. Nature of the series: In vitro antifungal assay, span over the five tested species. It counts as cell-based. Particulars: range over C. alb (5314).
A further series is described as follows: Plasma stability assay. Particulars: male, SD, rat.
A short description of series [3]: Metabolic stability assay of liver microsomes. In kind it is in vitro ADME. The note with it: mouse. On the technique in general: Microsomes from liver hold many membrane-bound enzymes, among them those of drug oxidation.

≈ marks a conversion by molar mass, not a printed value. Read-outs that look alike come from different tables or passages of the source.

Consider `O=C(Nc1ccccc1)c1ccc(COC(Cn2ccnc2)c2ccc(Cl)cc2Cl)cc1` (stereo not shown) [A01, 4-((1-(2,4-dichlorophenyl)-2-(1H-imidazol-1-yl)ethoxy)methyl)-N-phenylbenzamide], for which the MIC80 was found to be 4 µg/mL (≈ 8.58 µM) in the series on Strain 632; 0.25 µg/mL (≈ 0.536 µM) with C. neo; 0.125 µg/mL (≈ 0.268 µM) in the series with C. alb (SC5314); 4 µg/mL (≈ 8.58 µM) in the series on Strain CaR; 8 µg/mL (≈ 17.2 µM) in the series on Strain 17#; 2 µg/mL (≈ 4.29 µM) in the series with Strain 901. Further, the MIC80 with Strain 904 came to 0.5 µg/mL (≈ 1.07 µM). Also, the IC50 in the series on MRC-5 cells (Homo sapiens, MRC5, 72 h) was more than 100 µM. Moreover, in series [1], the “Expression of ERG11 and CDR1” value was “reduced to basic levels”.
In the case of `O=C(Nc1ccc(F)cc1)c1ccc(COC(Cn2ccnc2)c2ccc(Cl)cc2Cl)cc1` (stereo not shown) [A02, 4-((1-(2,4-Dichlorophenyl)-2-(1H-imidazol-1-yl)ethoxy)methyl)-N-(4-fluorophenyl)benzamide], the MIC80 with Strain 632 turned out to be 4 µg/mL (≈ 8.26 µM); in the series with C. neo it was 0.5 µg/mL (≈ 1.03 µM); in the series on C. alb (SC5314), 0.125 µg/mL (≈ 0.258 µM); in the series with Strain CaR, 8 µg/mL (≈ 16.5 µM); with Strain 17#, 8 µg/mL (≈ 16.5 µM); in the series with Strain 901 it was 4 µg/mL (≈ 8.26 µM). The MIC80 with Strain 904 is 0.25 µg/mL (≈ 0.516 µM). In addition, the IC50 in the series on MRC-5 cells (Homo sapiens, MRC5, 72 h) was more than 100 µM.
On to `O=C(Nc1ccc(Cl)cc1)c1ccc(COC(Cn2ccnc2)c2ccc(Cl)cc2Cl)cc1` (stereo not shown) [A03, N-(4-Chlorophenyl)-4-((1-(2,4-dichlorophenyl)-2-(1H-imidazol-1-yl)ethoxy)methyl)benzamide], for which the MIC80 in the series on Strain 632 came to 4 µg/mL (≈ 7.99 µM); in the series with C. neo, 0.06 µg/mL (≈ 0.12 µM); in the series on C. alb (SC5314), 0.125 µg/mL (≈ 0.25 µM); in the series with Strain CaR, 8 µg/mL (≈ 16 µM); in the series with Strain 17#, 16 µg/mL (≈ 31.9 µM); with Strain 901 it was 2 µg/mL (≈ 3.99 µM). For the same compound, the MIC80 with Strain 904 is 0.25 µg/mL (≈ 0.499 µM). Further, the IC50 in the series with MRC-5 cells (Homo sapiens, MRC5, 72 h) was more than 100 µM.
For `O=C(Nc1ccc(Br)cc1)c1ccc(COC(Cn2ccnc2)c2ccc(Cl)cc2Cl)cc1` (stereo not shown) [A04, N-(4-Bromophenyl)-4-((1-(2,4-dichlorophenyl)-2-(1H-imidazol-1-yl)ethoxy)methyl)benzamide], the MIC80 came to 4 µg/mL (≈ 7.34 µM) in the series with Strain 632; 0.25 µg/mL (≈ 0.458 µM) with C. neo; 0.06 µg/mL (≈ 0.11 µM) in the series with C. alb (SC5314); 4 µg/mL (≈ 7.34 µM) in the series on Strain CaR; 16 µg/mL (≈ 29.3 µM) with Strain 17#; 2 µg/mL (≈ 3.67 µM) in the series with Strain 901. For the same compound, the MIC80 in the series on Strain 904 was determined as 0.25 µg/mL (≈ 0.458 µM). In addition, in the series with MRC-5 cells (Homo sapiens, MRC5, 72 h), the IC50 was more than 100 µM.
For `Cc1ccc(NC(=O)c2ccc(COC(Cn3ccnc3)c3ccc(Cl)cc3Cl)cc2)cc1` (stereo not shown) [A05, 4-((1-(2,4-Dichlorophenyl)-2-(1H-imidazol-1-yl)ethoxy)methyl)-N-(p-tolyl)benzamide], the MIC80 worked out at 4 µg/mL (≈ 8.33 µM) in the series on Strain 632; 0.25 µg/mL (≈ 0.52 µM) in the series with C. neo; 0.03 µg/mL (≈ 0.0624 µM) in the series on C. alb (SC5314); 4 µg/mL (≈ 8.33 µM) in the series on Strain CaR; 8 µg/mL (≈ 16.7 µM) in the series with Strain 17#; 4 µg/mL (≈ 8.33 µM) in the series on Strain 901. The MIC80 with Strain 904 turned out to be 0.25 µg/mL (≈ 0.52 µM). Also, in the series with MRC-5 cells (Homo sapiens, MRC5, 72 h), the IC50 is more than 100 µM.
Take `O=C(Nc1ccc(C(F)(F)F)cc1)c1ccc(COC(Cn2ccnc2)c2ccc(Cl)cc2Cl)cc1` (stereo not shown) [A06, 4-((1-(2,4-Dichlorophenyl)-2-(1H-imidazol-1-yl)ethoxy)methyl)-N-(4-(trifluoromethyl)phenyl)benzamide]: the MIC80 was determined as 2 µg/mL (≈ 3.74 µM) in the series with Strain 632; 0.125 µg/mL (≈ 0.234 µM) in the series with C. neo; 0.06 µg/mL (≈ 0.112 µM) with C. alb (SC5314); 2 µg/mL (≈ 3.74 µM) with Strain CaR; 16 µg/mL (≈ 29.9 µM) in the series with Strain 17#; 2 µg/mL (≈ 3.74 µM) in the series with Strain 901. In addition, the MIC80 with Strain 904 worked out at 0.25 µg/mL (≈ 0.468 µM). Further, the IC50 in the series with MRC-5 cells (Homo sapiens, MRC5, 72 h) was more than 100 µM.
Turning to `COc1ccc(NC(=O)c2ccc(COC(Cn3ccnc3)c3ccc(Cl)cc3Cl)cc2)cc1` (stereo not shown) [A07, 4-((1-(2,4-Dichlorophenyl)-2-(1H-imidazol-1-yl)ethoxy)methyl)-N-(4-methoxyphenyl)benzamide], the MIC80 is 4 µg/mL (≈ 8.06 µM) in the series on Strain 632; 0.25 µg/mL (≈ 0.504 µM) in the series with C. neo; 0.06 µg/mL (≈ 0.121 µM) in the series on C. alb (SC5314); 4 µg/mL (≈ 8.06 µM) in the series with Strain CaR; 4 µg/mL (≈ 8.06 µM) in the series with Strain 17#; 4 µg/mL (≈ 8.06 µM) in the series with Strain 901. Further, the MIC80 in the series on Strain 904 stood at 0.25 µg/mL (≈ 0.504 µM). The IC50 in the series with MRC-5 cells (Homo sapiens, MRC5, 72 h) was more than 100 µM. The “Expression of ERG11 and CDR1” value in series [1] is recorded as “reduced to basic levels”.
In the case of `O=C(Nc1cccc(F)c1)c1ccc(COC(Cn2ccnc2)c2ccc(Cl)cc2Cl)cc1` (stereo not shown) [A08, 4-((1-(2,4-Dichlorophenyl)-2-(1H-imidazol-1-yl)ethoxy)methyl)-N-(3-fluorophenyl)benzamide], the MIC80 came out at 4 µg/mL (≈ 8.26 µM) with Strain 632; 0.125 µg/mL (≈ 0.258 µM) with C. neo; 0.06 µg/mL (≈ 0.124 µM) in the series on C. alb (SC5314); 4 µg/mL (≈ 8.26 µM) in the series with Strain CaR; 16 µg/mL (≈ 33 µM) in the series on Strain 17#; 2 µg/mL (≈ 4.13 µM) with Strain 901. For the same compound, the MIC80 in the series on Strain 904 was found to be 0.25 µg/mL (≈ 0.516 µM). Also, the IC50 with MRC-5 cells (Homo sapiens, MRC5, 72 h) is more than 100 µM.
Consider `O=C(Nc1cccc(Cl)c1)c1ccc(COC(Cn2ccnc2)c2ccc(Cl)cc2Cl)cc1` (stereo not shown) [A09, N-(3-Chlorophenyl)-4-((1-(2,4-dichlorophenyl)-2-(1H-imidazol-1-yl)ethoxy)methyl)benzamide], for which the MIC80 was found to be 4 µg/mL (≈ 7.99 µM) in the series with Strain 632; 0.125 µg/mL (≈ 0.25 µM) in the series on C. neo; 0.03 µg/mL (≈ 0.0599 µM) in the series on C. alb (SC5314); 8 µg/mL (≈ 16 µM) in the series on Strain CaR; 8 µg/mL (≈ 16 µM) in the series with Strain 17#; 2 µg/mL (≈ 3.99 µM) in the series on Strain 901. The MIC80 in the series with Strain 904 stood at 0.25 µg/mL (≈ 0.499 µM). Besides, the IC50 in the series on MRC-5 cells (Homo sapiens, MRC5, 72 h) was more than 100 µM.
Turning to `O=C(Nc1cccc(Br)c1)c1ccc(COC(Cn2ccnc2)c2ccc(Cl)cc2Cl)cc1` (stereo not shown) [A10, N-(3-Bromophenyl)-4-((1-(2,4-dichlorophenyl)-2-(1H-imidazol-1-yl)ethoxy)methyl)benzamide], the MIC80 is 8 µg/mL (≈ 14.7 µM) in the series with Strain 632; 0.125 µg/mL (≈ 0.229 µM) in the series with C. neo; 0.25 µg/mL (≈ 0.458 µM) with C. alb (SC5314); 8 µg/mL (≈ 14.7 µM) with Strain CaR; 16 µg/mL (≈ 29.3 µM) with Strain 17#; 2 µg/mL (≈ 3.67 µM) in the series on Strain 901. Further, the MIC80 with Strain 904 stood at 0.25 µg/mL (≈ 0.458 µM). The IC50 with MRC-5 cells (Homo sapiens, MRC5, 72 h) is more than 100 µM.
For the compound `O=C(Nc1ccc2cccnc2c1)c1ccc(COC(Cn2ccnc2)c2ccc(Cl)cc2Cl)cc1` (stereo not shown) [A12, 4-((1-(2,4-Dichlorophenyl)-2-(1H-imidazol-1-yl)ethoxy)methyl)-N-(quinolin-7-yl)benzamide], the MIC80 in the series on Strain 632 stood at 8 µg/mL (≈ 15.5 µM); with C. neo, 4 µg/mL (≈ 7.73 µM); with C. alb (SC5314) it was 8 µg/mL (≈ 15.5 µM); in the series with Strain CaR, 4 µg/mL (≈ 7.73 µM); in the series with Strain 17# it was 8 µg/mL (≈ 15.5 µM); with Strain 901, 8 µg/mL (≈ 15.5 µM). The MIC80 with Strain 904 was 2 µg/mL (≈ 3.87 µM). Further, in the series on MRC-5 cells (Homo sapiens, MRC5, 72 h), the IC50 is more than 100 µM. Besides, in series [2], the “MIC80 / MIC span over the five tested fungi” value lay in the range of 2 to 64 µg/mL.
Consider `O=C(Nc1ccc2[nH]ccc2c1)c1ccc(COC(Cn2ccnc2)c2ccc(Cl)cc2Cl)cc1` (stereo not shown) [A15, 4-((1-(2,4-Dichlorophenyl)-2-(1H-imidazol-1-yl)ethoxy)methyl)-N-(1H-indol-5-yl)benzamide], for which the MIC80 is 128 µg/mL (≈ 253 µM) in the series with Strain 632; 128 µg/mL (≈ 253 µM) with C. neo; 128 µg/mL (≈ 253 µM) with C. alb (SC5314); 128 µg/mL (≈ 253 µM) in the series on Strain CaR; more than 128 µg/mL in the series on Strain 17#; 8 µg/mL (≈ 15.8 µM) in the series on Strain 901. For the same compound, in the series with Strain 904, the MIC80 came out at 8 µg/mL (≈ 15.8 µM). In the series on MRC-5 cells (Homo sapiens, MRC5, 72 h), the IC50 was more than 100 µM.
With `Clc1ccc(COC(Cn2ccnc2)c2ccc(Cl)cc2Cl)c(Cl)c1` (stereo not shown) [Miconazole, miconazole], the MIC80 with C. neo is 0.125 µg/mL (≈ 0.3 µM). Besides, the MIC80 in the series on C. alb (SC5314) is 0.25 µg/mL (≈ 0.601 µM). Besides, in the series “Plasma stability assay”, the half-life was more than 360 min and the amount remaining at 3 h was 94.9%. Further, in series [3], the half-life came to 8.3 min and the microsomal CLint was 660 µL/min/mg.
With `N.N.[Cl][Pt][Cl]` [cis-Pt, reference compound], the IC50 with MRC-5 cells (72 hours) was determined as 78.3 µM.
